Marks after values point to notes of the source that are not given here.
How the values were obtained:
Orexin 2 receptor = molecular target: T1, Orexin 2 receptor (Homo sapiens, UniProt O43614); assay: Orexin 2 receptor binding kinetics; conditions: for T1/2 ON (binding half-life): almorexant applied 3-fold above its Kd (value an underestimate); for koff: read-out: KOFF (dissociation constant)
T1 sequence (O43614 1-444): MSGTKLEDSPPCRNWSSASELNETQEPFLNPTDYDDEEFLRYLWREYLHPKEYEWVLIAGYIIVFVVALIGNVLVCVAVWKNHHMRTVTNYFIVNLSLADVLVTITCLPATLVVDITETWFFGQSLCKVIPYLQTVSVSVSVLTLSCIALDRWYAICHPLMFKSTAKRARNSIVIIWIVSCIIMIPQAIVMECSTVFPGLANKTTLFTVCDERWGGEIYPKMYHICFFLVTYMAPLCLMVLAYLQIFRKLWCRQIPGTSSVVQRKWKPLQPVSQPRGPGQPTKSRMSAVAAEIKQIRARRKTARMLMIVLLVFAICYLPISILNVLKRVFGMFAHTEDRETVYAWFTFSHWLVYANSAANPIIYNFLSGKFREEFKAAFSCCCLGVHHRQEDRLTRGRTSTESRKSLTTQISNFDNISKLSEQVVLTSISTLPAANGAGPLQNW

rats = assay: Rat telemetry polysomnography (time in active wake and sleep stages); type: in vivo; conditions: 100 mg/kg
Protocol: The mean time spent in sleep stages was determined in radio-telemetry-implanted mice, rats, dogs, and rhesus monkeys as first described by Renger and colleagues and subsequently by Winrow and colleagues with minor modifications. For baseline studies, recordings were taken continuously from unperturbed mice, rats, dogs, and monkeys for 6, 6, 10, or 5 days, respectively, and the mean time spent in all sleep stages in 30-min intervals were averaged and plotted onto a single 24-h period (Figure 1). Almorexant is a DORA [43] that was previously in clinical development for the treatment of insomnia. The clinical development program for almorexant was terminated in early 2011. […] In all cases, mean time in active wake, quiet wake, SWS, and REM sleep was determined for each 30-min interval for 3 days of each condition and averaged onto a single 24-h period. […] Statistical differences in mean time spent in active wake, quiet wake, SWS, and REM sleep between vehicle- and compound-treated groups at 30-min time points were determined by a linear mixed-effects model applied t-test.

OX2R [1] = molecular target: T2, OX2R (Rattus norvegicus, UniProt P56719); parameters: method as in earlier work; conditions: ref 29 (Dugovic et al. 2009); cited from earlier work
T2 sequence (P56719 1-460): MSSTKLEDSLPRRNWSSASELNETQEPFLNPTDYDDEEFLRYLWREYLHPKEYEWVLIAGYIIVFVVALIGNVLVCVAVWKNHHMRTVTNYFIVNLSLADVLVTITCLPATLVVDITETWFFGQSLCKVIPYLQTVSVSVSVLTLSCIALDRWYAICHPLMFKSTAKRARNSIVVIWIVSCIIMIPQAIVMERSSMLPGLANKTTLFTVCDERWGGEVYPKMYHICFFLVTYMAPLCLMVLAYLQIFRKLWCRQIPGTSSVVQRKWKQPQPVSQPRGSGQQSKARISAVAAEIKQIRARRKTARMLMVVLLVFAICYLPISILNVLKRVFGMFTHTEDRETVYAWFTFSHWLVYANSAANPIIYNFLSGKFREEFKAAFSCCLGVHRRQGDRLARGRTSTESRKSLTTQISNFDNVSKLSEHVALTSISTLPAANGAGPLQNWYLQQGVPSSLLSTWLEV

OX2R [2] = molecular target: T3, OX2R (Homo sapiens, UniProt O43614); assay: OX2R occupancy, ex vivo radioligand-binding displacement in transgenic rats expressing human OX2R; parameters: from tissue; host or cells: brain homogenate of transgenic rats expressing hOX2R under the rat enolase promoter; species or system transgenic rat; conditions: satellite rats, 100 mg/kg, treatment at onset of inactive phase
T3 sequence (O43614 1-444): T1 sequence (O43614 1-444)
Text: Frozen tissue was weighed and thawed coincident with homogenization.

[3] = Plasma and CSF compound levels in satellite rats; conditions: rat, in vivo, 100 mg/kg
Protocol: Separately, the relationship between OX2R occupancy relative to plasma exposure was determined by administering DORA-12 intravenously (i.v.) over a range of doses to transgenic rats expressing human OX2R to determine a full occupancy curve over a wide range of plasma concentrations in order to define the maximal occupancy against which raw occupancy values could be normalized. This relationship was then used to determine the OX2R occupancy in PSG experiments from measured plasma concentrations.
Occupancy of human OX2R in transgenic rats expressing the receptor via the rat enolase promoter was performed ex vivo in radioligand-binding-displacement assays essentially as previously described with minor modifications. To determine the relationship between OX2R occupancy for a given compound over a full range of plasma and CSF concentrations, hOX2R-expressing rats were dosed i.v. with compound. Immediately following 30 min of i.v. administration, animals were anesthetized, sacrificed, and CSF, blood, and brain tissue were harvested and frozen for analysis. Frozen tissue was weighed and thawed coincident with homogenization. The homogenate was pelleted at 21,000 × g for 1 min and the pellet was resuspended. […] Non-specific binding was determined by the addition of 1000-fold excess unlabeled ligand. Experimental (dosed)-specific binding was compared with control (vehicle-dosed) binding ([specific total counts minus specific experimental counts]/specific total counts × 100 = percent occupancy). Raw occupancy values determined in this manner over a range of plasma and CSF values were then used to construct a normalized curve where the theoretical maximum occupancy value was defined as 100% and occupancies relative to plasma or CSF values were fit to a […] (hyperbola) curve (GraphPad Prism, San Diego, CA, USA). […] In separate experiments, plasma, CSF, and brain tissue was collected at time points following dosing to directly measure compound levels and corresponding OX2R occupancies at these times. Resulting occupancy relative to measured plasma levels of compound was fit to a normalized binding curve as described previously.

rhesus monkeys [4] = assay: Rhesus monkey polysomnography (active wake); type: in vivo; conditions: 10 mg/kg p.o. 2 h before lights out, 10 mg/kg
Protocol: Animals were fed on a calorie-controlled diet of laboratory chow supplemented with fruit and vegetables. Water was available ad libitum with the exception of those monkeys trained to perform cognitive tasks, for which access was restricted for up to 4 h prior to and during cognitive testing. Treatment occurred at 14:40 (Zeitgeber time [ZT] 10:10) in a balanced 1-day cross-over design: 1 day of drug or vehicle followed by 6 days of baseline followed by 1 day of vehicle or drug. Cognition tasks were scheduled for next-day evaluation as described below. Sleep/wake architecture was scored according to vigilance state (active wake, quiet wake, delta sleep I, delta sleep II, and REM sleep) at 30-minute intervals and analyzed as previously described. Spectral analysis of continuous EEG was quantified between vehicle and compound after binning continuous frequencies into canonical frequency bands (reported herein: Delta, 0.5 – 4 Hz; Theta, 4.0 – 7 Hz; Gamma, 35.0 – 100.0 Hz). qEEG values are spectral power (uV2) log transformed before analysis and averaged over 30-minute intervals, expressed as means +/− SEM, and compared with vehicle using a mixed-model ANOVA at each time point with random effects for subject and date within subject in the R statistical computing environment (cran.us.r-project.org; the R Foundation for Statistical Computing, Vienna, Austria) using a linear mixed effects model for significance testing.

rhesus monkeys [5] = conditions: sleep-promoting doses; cited from earlier work
rhesus monkeys [6] = assay: Monkey Serial Choice Reaction Time (SCRT) task; type: in vivo; conditions: 10 mg/kg p.o., versus vehicle, 10 mg/kg
Text: Each SCRT trial was initiated with the appearance of 10 blue square ‘target’ images evenly distributed at 3-inch intervals around the perimeter of a touchscreen presented together with a centrally located circular ‘centering’ image (1.4 inch diameter circle). The task began with the monkey touching the centering image, which then turned gray. The monkey was then required to touch the centering image continuously throughout a variable pre-cue interval of 0.25-7.5 s. On completion of the pre-cue interval, one of the blue target images was cued by turning red for one of four cue durations before turning back to blue. To obtain a reward, the monkey was required to touch the target image that had been ‘cued’ red within a 5 s limited hold period. […] On completion of the trial, an inter-trial interval of 2 s was initiated prior to the next trial. […] If the monkey initiated a trial but removed its hand from the touchscreen prior to the appearance of the cue, the trial was terminated and the screen was blanked during a 2 s inter-trial interval. Sessions were terminated after 20 min. Cue location and duration were pseudo-randomly assigned. Cue duration and the target size were titrated for each subject on the basis of performance during previous baseline sessions to yield a performance of 60–80% correct responses for the trials of the shortest cue duration. The briefest cue duration varied from 0.04–0.1 s and the cues varied in size from 0.2–0.7 inches, although each cue had the same touch-sensitive area of 1.75 inches. Values reported in the current study reflect the proportion of correct responses to targets after cues of the shortest duration only.

rhesus monkeys [7] = assay: Monkey Delayed Match to Sample (DMS) task; type: in vivo; conditions: 10 mg/kg p.o., versus vehicle
Text: All cognition testing occurred in the animal’s home cage equipped with a touchscreen. Each DMS trial was initiated with a single ‘sample’ image (150 × 200 pixels: 1.8 inches × 2.3 inches) in one of eight colors presented at the center of a touchscreen. Evaluation began when the monkey touched the sample image, at which point the screen became blank for a retention period. Following the retention period, four choice images (150 × 200 pixels) were presented, one in each corner of the screen. One of the four choice images matched the color of the sample image, whereas the three remaining ‘distractor’ images were drawn from the pool of remaining colors. A reinforcer was provided when the monkey touched the choice image that matched the color of the sample image. […] Test sessions comprised 96 trials or lasted for up to 45 min. […] Response latencies to sample and choice images were also recorded. Values reported reflect the proportion of correct responses collapsed over all retention intervals. Differences from vehicle were examined using repeated measures ANOVA.

| Compound | KON (association constant) (Orexin 2 receptor) [mol⁻¹ min⁻¹] | Kd (Orexin 2 receptor) [nM] | T1/2 OFF (half-life off-rates) (Orexin 2 receptor) [h] | T1/2 ON (binding half-life) (Orexin 2 receptor) | koff (Orexin 2 receptor) [s⁻¹] | Cognitive assessment in DMS and SCRT tasks within 2 h following treatment (rhesus monkeys [5]) | also measured |
| --- | --- | --- | --- | --- | --- | --- | --- |
| CNC(=O)[C@@H](c1ccccc1)N1CCc2cc(OC)c(OC)cc2[C@@H]1CCc1ccc(C(F)(F)F)cc1 [Almorexant] | 1.58e+07 | 0.048 | 4.47 | 162^a min | 4.49e-05 |  | Duration of active wake reduction following treatment (rats; dosed during active phase): up to 7.5 h; Duration of active wake reduction following treatment (rats; inactive-phase treatment): up to 11 h; OX2R occupancy above which significant changes appeared (OX2R [1]): above 89%; OX2R occupancy at which efficacy was not observed (OX2R [1]): 78%; OX2R occupancy at 10 h (OX2R [2]): remained elevated; Levels within the CSF at 10 h [3]: undetectable |
| CN1C(=O)CN=C(c2ccccc2)c2cc(Cl)ccc21 [Diazepam] |  |  |  |  |  | substantial deficits | Active wake late in the inactive phase and next morning (residual sleep effect) (rhesus monkeys [4]): promoted sleep throughout the normal resting period and into the subsequent active phase; Active wake late in the inactive phase and next morning (residual sleep effect) (rhesus monkeys [4]; listed as diazepam): significantly attenu-ated active wake; Next-day attention (SCRT, correct responses to shortest cues), 16 h after dosing (rhesus monkeys [6]): impacted memory and attention; Next-day attention (SCRT, correct responses to shortest cues), 16 h after dosing (rhesus monkeys [6]; listed as diazepam): significant deficits; Next-day recognition memory (DMS), 14 h after dosing (rhesus monkeys [7]): impacted memory and attention; Next-day recognition memory (DMS), 14 h after dosing (rhesus monkeys [7]; listed as diazepam): Significant deficits |
| Cc1ccc(-c2ncccn2)c(C(=O)N2C[C@H](COc3ccc(F)cn3)CC[C@H]2C)c1 [MK-6096, [(2R,5R)-5-{[(5-fluoropyridin-2-yl)oxy]methyl}-2-methylpiperidin-1-yl][5-methyl-2-(pyrimidin-2-yl)phenyl]methanone] | 1.69e+07 | 0.338 | 1.97 | 62.9 min | 0.000113 |  |  |
| Cc1nc(C(=O)N2CCCC[C@H]2CNC(=O)c2cccc3occc23)c(-c2ccc(F)cc2)s1 [SB-649868] | 2.56e+07 | 0.163 | 0.95 | 37.0 min | 0.00021 |  |  |
| Cc1ccc(-c2nc3ccc(C)cn3c2CC(=O)N(C)C)cc1 [Zolpidem] |  |  |  |  |  | substantial deficits |  |

Reference: article PMC3765993, “The duration of sleep promoting efficacy by dual orexin receptor antagonists is dependent upon receptor occupancy threshold” (BMC Neuroscience, 2013)
